# Experimental data taken from ChEMBL document CHEMBL5465560, “Selectivity Literature for EUbOPEN Chemogenomic Library” (2024).
# How the values were obtained:
# [1] = target: Tyrosine-protein kinase receptor Tie-1 (Homo sapiens) (UniProt P35590); assay: Selectivity interaction (KinomeScan (DiscoverX)) EUB0000607a TIE1; conditions: at 10 µM
# [2] = target: Activin receptor type-2B (Homo sapiens) (UniProt Q13705); assay: Selectivity interaction (KinomeScan (DiscoverX)) EUB0000607a ACVR2B; conditions: at 10 µM
# [3] = target: T1, cAMP-dependent protein kinase catalytic subunit PRKX (Homo sapiens) (UniProt P51817); conditions: at 10 µM
# T1 sequence (whole entry): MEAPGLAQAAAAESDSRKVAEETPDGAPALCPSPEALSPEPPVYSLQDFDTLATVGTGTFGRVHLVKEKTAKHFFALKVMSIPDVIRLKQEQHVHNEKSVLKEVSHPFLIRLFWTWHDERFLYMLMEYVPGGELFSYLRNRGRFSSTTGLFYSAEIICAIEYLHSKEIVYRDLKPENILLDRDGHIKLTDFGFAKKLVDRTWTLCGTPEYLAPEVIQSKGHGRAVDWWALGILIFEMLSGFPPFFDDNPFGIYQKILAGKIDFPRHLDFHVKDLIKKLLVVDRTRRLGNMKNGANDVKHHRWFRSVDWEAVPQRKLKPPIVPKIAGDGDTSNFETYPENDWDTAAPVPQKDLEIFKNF
# [4] = tested on: Mast/stem cell growth factor receptor Kit (Homo sapiens), P10721 [V559D,T670I]; conditions: at 10 µM
# [5] = target: Non-receptor tyrosine-protein kinase TYK2 (Homo sapiens, UniProt P29597); assay: Selectivity interaction (Kinase panel (Invitrogen)) EUB0000639a TYK2; conditions: at 200 nM
# Chain of Non-receptor tyrosine-protein kinase TYK2 (P29597 whole entry): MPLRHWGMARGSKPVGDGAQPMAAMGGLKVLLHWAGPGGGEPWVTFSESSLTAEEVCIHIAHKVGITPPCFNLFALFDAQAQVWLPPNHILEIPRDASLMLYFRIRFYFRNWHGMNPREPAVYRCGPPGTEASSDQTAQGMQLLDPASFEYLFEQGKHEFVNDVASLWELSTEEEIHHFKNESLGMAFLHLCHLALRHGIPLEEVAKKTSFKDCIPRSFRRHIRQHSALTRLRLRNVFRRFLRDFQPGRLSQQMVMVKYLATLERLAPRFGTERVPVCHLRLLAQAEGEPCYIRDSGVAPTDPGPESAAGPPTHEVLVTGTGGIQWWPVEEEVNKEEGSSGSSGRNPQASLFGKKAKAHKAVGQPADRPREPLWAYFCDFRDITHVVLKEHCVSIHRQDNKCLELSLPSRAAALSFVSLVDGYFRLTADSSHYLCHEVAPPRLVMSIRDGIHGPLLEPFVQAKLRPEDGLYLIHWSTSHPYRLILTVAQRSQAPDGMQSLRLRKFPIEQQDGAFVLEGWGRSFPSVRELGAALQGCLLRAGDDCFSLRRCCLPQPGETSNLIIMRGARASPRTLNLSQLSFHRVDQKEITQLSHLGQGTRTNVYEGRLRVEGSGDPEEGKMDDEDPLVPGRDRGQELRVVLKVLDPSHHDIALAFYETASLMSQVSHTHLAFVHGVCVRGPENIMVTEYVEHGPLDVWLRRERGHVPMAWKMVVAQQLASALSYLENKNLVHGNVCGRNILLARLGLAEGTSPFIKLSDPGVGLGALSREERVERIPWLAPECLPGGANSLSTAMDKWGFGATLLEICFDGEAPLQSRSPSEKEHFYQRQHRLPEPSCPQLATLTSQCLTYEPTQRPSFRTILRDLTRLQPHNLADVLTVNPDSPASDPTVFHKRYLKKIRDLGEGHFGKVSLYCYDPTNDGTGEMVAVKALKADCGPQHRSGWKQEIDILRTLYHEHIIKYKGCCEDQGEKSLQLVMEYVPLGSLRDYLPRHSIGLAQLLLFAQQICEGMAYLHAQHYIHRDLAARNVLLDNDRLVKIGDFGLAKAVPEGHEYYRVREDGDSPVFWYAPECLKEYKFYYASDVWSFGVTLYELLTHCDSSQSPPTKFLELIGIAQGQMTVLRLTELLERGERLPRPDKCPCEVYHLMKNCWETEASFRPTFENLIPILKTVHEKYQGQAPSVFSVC
# [6] = target: T2, Serine/threonine-protein kinase tousled-like 1 (Homo sapiens) (UniProt Q9UKI8); assay: Selectivity interaction (ActivX KiNativ screen (kinase selectivity in THP-1 cell lysates)) EUB0000639a TLK1; format: subcellular; conditions: lysate, at 0.01 µM
# T2 sequence (whole entry): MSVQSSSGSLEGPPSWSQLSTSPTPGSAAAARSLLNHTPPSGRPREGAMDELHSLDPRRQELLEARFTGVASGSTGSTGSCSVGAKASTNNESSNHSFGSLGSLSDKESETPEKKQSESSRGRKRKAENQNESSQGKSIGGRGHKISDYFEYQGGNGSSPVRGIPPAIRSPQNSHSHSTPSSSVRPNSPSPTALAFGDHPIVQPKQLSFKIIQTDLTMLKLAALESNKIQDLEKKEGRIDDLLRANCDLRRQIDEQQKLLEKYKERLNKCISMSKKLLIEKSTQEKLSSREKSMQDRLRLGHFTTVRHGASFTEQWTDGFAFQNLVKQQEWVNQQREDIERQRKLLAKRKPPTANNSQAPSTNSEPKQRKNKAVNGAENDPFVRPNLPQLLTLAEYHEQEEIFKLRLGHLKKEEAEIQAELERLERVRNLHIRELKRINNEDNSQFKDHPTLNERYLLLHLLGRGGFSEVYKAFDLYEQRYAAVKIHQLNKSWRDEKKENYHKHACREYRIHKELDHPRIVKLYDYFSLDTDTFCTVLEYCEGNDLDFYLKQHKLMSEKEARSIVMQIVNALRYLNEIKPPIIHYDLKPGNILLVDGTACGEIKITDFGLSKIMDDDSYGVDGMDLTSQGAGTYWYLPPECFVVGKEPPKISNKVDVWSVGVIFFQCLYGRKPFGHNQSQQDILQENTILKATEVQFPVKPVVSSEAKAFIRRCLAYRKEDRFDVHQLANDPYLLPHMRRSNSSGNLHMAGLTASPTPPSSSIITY
# [7] = target: Myosin light chain kinase 2, skeletal/cardiac muscle (Homo sapiens) (UniProt Q9H1R3); assay: Selectivity interaction (ProQinase) EUB0000171b MYLK2
# Chain of Myosin light chain kinase 2, skeletal/cardiac muscle (Homo sapiens) (Q9H1R3 whole entry): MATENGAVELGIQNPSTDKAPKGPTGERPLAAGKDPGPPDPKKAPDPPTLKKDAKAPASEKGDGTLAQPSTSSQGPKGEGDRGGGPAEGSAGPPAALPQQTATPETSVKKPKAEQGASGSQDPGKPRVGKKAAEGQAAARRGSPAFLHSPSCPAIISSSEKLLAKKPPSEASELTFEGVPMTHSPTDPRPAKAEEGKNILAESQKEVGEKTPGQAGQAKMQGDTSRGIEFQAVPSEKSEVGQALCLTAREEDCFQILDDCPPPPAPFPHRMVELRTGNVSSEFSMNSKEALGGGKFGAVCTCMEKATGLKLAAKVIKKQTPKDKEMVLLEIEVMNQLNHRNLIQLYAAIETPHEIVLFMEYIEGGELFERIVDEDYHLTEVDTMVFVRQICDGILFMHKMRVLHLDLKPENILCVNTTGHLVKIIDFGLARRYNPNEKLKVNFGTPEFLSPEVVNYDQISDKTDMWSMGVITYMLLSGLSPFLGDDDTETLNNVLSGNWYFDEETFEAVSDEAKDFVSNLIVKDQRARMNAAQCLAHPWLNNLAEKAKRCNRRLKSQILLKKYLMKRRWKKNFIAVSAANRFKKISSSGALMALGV
# [8] = target: Homeodomain-interacting protein kinase 3 (Homo sapiens, UniProt Q9H422); assay: Selectivity interaction (KinomeScan (DiscoverX)) EUB0000695a HIPK3; conditions: at 100 nM
# [9] = target: Serine/threonine-protein kinase Chk2 (Homo sapiens) (UniProt O96017); assay: Selectivity interaction (KinomeScan (DiscoverX)) EUB0000595a CHEK2; conditions: at 10 µM
# [10] = target: Proto-oncogene tyrosine-protein kinase ROS (Homo sapiens) (UniProt P08922); assay: Selectivity interaction (KinomeScan (DiscoverX)) EUB0000595a ROS1; conditions: at 10 µM
# [11] = target: BMP-2-inducible protein kinase (Homo sapiens) (UniProt Q9NSY1); assay: Selectivity interaction (KinomeScan (DiscoverX)) EUB0000655a BMP2K; conditions: at 10 µM
# Chain of BMP-2-inducible protein kinase (Homo sapiens) (Q9NSY1 whole entry, looked up): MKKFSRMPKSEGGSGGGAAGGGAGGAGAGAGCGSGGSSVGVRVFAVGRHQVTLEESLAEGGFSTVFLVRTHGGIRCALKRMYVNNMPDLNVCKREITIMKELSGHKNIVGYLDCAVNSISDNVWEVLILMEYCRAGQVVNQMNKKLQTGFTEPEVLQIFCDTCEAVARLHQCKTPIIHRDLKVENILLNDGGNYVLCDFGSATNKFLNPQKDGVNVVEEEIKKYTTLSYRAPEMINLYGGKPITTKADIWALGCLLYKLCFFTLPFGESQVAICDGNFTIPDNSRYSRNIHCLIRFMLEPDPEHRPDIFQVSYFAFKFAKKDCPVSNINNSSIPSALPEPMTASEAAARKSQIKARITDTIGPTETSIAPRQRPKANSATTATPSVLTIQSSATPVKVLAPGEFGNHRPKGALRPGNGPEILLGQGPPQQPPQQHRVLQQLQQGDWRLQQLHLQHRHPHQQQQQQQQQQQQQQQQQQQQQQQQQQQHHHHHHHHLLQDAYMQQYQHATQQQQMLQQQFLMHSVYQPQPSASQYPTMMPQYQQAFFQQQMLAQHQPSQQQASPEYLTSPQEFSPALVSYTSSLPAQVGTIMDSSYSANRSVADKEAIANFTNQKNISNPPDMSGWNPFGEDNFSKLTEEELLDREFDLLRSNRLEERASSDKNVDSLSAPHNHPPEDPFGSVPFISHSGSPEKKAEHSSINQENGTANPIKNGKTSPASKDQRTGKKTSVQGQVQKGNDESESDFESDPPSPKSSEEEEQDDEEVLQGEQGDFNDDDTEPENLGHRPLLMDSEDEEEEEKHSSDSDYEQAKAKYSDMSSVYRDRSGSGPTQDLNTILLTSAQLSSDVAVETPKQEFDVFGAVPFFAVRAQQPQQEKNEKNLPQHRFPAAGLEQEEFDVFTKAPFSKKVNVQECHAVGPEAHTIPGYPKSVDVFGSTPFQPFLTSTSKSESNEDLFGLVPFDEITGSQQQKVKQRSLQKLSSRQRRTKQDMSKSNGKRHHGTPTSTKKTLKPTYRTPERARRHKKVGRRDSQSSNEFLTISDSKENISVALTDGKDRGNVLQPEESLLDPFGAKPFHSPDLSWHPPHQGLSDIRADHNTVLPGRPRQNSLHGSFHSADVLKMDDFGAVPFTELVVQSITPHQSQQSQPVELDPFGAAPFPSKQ
# [12] = target: T3, Tyrosine-protein kinase Mer (Homo sapiens) (UniProt Q12866); conditions: at 10 µM
# T3 sequence (whole entry): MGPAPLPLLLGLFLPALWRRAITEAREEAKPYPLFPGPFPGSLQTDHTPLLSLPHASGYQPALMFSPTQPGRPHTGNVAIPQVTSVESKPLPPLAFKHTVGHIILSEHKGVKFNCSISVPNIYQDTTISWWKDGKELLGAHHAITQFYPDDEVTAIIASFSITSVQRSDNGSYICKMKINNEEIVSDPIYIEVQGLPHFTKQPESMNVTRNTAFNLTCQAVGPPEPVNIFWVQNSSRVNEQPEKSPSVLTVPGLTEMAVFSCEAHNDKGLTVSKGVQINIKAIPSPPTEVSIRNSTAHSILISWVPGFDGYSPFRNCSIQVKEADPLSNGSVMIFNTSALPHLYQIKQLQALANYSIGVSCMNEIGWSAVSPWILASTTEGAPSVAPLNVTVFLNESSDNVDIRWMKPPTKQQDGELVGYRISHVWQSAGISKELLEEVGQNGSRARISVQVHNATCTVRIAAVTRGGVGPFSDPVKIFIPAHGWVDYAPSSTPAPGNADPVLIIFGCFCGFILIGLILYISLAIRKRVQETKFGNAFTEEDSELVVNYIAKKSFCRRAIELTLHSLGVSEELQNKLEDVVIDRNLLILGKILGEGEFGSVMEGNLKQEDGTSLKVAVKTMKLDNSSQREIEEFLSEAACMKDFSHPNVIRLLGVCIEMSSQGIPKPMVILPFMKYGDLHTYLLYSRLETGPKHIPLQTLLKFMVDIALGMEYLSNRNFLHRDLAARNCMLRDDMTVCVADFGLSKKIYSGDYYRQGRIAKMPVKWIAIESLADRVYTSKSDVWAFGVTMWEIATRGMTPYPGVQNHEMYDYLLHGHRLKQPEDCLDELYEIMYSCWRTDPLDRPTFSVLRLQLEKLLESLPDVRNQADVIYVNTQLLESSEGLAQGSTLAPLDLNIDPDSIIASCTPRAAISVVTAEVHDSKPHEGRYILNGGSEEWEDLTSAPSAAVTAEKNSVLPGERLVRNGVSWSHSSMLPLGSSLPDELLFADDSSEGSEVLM
# [13] = tested on: Mast/stem cell growth factor receptor Kit (Homo sapiens), P10721 [V559D,V654A]; assay: (§1) Selectivity interaction (KinomeScan (DiscoverX)) EUB0000618a KIT; conditions: at 10 µM
# Chain of Mast/stem cell growth factor receptor Kit (Homo sapiens), P10721 [V559D,V654A] (P10721 whole entry V559D/V654A): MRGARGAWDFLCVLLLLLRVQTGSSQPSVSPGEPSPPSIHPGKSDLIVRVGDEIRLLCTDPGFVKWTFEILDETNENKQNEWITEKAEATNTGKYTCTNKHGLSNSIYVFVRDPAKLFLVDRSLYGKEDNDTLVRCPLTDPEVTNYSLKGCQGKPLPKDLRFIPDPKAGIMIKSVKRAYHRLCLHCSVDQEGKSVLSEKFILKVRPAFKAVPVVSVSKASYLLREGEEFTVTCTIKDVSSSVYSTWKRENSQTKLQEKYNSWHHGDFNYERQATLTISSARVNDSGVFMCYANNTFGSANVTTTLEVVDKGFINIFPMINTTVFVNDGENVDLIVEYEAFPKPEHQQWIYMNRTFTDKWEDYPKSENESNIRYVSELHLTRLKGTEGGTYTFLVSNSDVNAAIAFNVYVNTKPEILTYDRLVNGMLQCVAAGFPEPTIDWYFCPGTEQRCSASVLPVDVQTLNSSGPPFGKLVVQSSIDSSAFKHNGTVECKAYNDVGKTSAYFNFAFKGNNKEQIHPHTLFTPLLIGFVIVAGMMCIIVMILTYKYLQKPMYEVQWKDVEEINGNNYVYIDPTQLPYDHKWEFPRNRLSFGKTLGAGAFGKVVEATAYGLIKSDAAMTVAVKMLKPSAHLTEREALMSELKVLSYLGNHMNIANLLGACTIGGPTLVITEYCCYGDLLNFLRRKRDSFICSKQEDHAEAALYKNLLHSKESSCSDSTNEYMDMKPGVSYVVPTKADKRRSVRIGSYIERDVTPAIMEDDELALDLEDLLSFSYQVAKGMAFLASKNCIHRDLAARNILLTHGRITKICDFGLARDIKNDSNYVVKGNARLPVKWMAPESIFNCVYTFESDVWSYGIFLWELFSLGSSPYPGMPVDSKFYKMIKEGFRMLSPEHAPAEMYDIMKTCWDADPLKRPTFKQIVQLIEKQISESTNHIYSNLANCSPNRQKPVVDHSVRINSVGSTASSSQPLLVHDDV
# [14] = target: Mast/stem cell growth factor receptor Kit (Homo sapiens, UniProt P10721); assay: as §1; conditions: at 10 µM
# Chain of Mast/stem cell growth factor receptor Kit (P10721 whole entry): as the sequence (P10721 whole entry V559D/V654A) above, with D559V, A654V counted along it
# Chain of Tyrosine-protein kinase receptor Tie-1 (Homo sapiens) (P35590 whole entry): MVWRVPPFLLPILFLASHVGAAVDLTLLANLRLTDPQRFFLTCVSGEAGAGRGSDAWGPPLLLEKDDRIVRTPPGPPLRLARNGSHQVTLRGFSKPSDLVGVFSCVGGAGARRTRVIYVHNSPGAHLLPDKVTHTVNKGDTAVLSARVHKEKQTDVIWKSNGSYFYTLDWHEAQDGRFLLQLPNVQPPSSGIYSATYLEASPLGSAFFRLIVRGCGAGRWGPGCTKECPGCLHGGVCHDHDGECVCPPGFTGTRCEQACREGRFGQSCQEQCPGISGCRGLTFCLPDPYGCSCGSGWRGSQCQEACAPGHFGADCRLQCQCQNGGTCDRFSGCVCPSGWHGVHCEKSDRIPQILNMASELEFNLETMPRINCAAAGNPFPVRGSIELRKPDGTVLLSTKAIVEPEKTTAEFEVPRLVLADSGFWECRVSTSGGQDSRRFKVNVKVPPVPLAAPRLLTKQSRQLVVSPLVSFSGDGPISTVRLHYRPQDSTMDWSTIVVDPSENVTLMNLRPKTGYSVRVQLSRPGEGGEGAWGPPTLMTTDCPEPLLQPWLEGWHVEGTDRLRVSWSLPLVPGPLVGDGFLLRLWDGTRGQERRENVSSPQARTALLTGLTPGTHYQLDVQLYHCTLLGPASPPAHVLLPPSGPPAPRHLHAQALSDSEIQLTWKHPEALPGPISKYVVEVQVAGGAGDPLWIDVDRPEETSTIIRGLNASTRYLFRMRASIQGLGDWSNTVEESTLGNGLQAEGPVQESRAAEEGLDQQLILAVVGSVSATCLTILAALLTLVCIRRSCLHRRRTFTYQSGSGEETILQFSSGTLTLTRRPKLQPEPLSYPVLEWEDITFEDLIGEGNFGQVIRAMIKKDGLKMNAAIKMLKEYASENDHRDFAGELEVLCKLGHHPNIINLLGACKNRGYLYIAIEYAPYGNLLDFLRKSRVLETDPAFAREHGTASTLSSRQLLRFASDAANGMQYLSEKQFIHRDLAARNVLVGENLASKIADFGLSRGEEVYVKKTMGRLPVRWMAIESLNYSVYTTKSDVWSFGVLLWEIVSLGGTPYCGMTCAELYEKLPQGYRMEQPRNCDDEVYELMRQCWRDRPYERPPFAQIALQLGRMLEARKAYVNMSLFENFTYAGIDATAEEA
compound,measurement,setting,value
CNC(=O)Nc1ccc(-c2nc(N3CC4CCC(C3)O4)c3cnn(C4CCC5(CC4)OCCO5)c3n2)cc1,% of control,[1],98%
same,% of control,[2],77%
CCN(CC)CCCCNc1ncc2cc(-c3cc(OC)cc(OC)c3)c(NC(=O)NC(C)(C)C)nc2n1,% of control,[3],100%
same,% of control,[4],100%
CC[C@@H]1[C@H](F)C(=O)N[C@@H]1COc1nccc2cc(C(N)=O)c(OC)cc12 [ZIMLOVISERTIB],% of inhibition,[5],5.13%
same,% of inhibition,[6],1.9%
C=CC(=O)Nc1cccc(C(=O)Nc2ccc(Nc3cc(-c4[nH]c(SC)nc4C)ccn3)cc2)c1,% of control,[7]; at 1 µM,83%
same,% of control,[7]; at 5 µM,59%
Cc1cc(F)c(C(=O)Nc2cccc(-c3nncn3C(C)C)n2)cc1-n1cnc(C2CC2)c1,% of control,[8],100%
COCC(=O)NC/C=C/c1ccc2ncnc(Nc3ccc(Oc4ccc(C)nc4)c(C)c3)c2c1 [CP-724714],% of control,[9],55%
same,% of control,[10],100%
CN(C)CCOc1ccc(-c2nc(-c3ccncc3)c(-c3ccc4c(c3)CC/C4=N\O)[nH]2)cc1,% of control,[11],82%
Cc1cc([C@@H](C)Nc2ccccc2C(=O)O)c2nc(N3CCOCC3)cc(=O)n2c1 [AZD-6482],% of control,[12],100%
O[C@H]1CC[C@H](Nc2ncc3nc(Nc4c(F)cc(F)cc4F)n([C@H]4CCOC4)c3n2)CC1,% of control,[13],68%
same,% of control,[14],96%
